By melting point is commonly meant the temperature, or range, at which the solid turns liquid.

We go through one molecule from US8791303B2, “Herbicides” (Syngenta Limited, priority 2009, dated 2014).

The subject of data set [1] is Lolium perenne (LOLPE). Kind of data set: Example A glasshouse herbicide test, pre-emergence, LOLPE. The data set is classed as in vivo. The following applies: Lolium perenne, pre-emergence, 312 h, Rate 250 g/ha, sprayed after cultivation for one day, evaluated after 13 days, read-out: Pre-Emergence Activity LOLPE (100=total damage to plant; 0=no damage to plant). The method, boiled down:
(§1)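 Seeds sown in standard soil in pots were sprayed 1 day (pre-emergence) or 8 days (post-emergence) after sowing with compound formulated in acetone/water (50:50) containing 0.5% Tween 20. Plants were kept at 24/16° C. day/night, 14 hours light, 65% humidity, and damage was scored after 13 days (0–100).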

For data set [2], the system named is Lolium perenne (LOLPE). Kind of data set: Example A glasshouse herbicide test, post-emergence, LOLPE. The format is in vivo. The following applies: Lolium perenne, post-emergence, 312 h, Rate 250 g/ha, sprayed after 8 days cultivation, evaluated after 13 days, read-out: Post-Emergence Activity LOLPE (100=total damage to plant; 0=no damage to plant). The gist of the method: as §1

Data set [3] relates to Alopecurus myosuroides (ALOMY). Kind of data set: Example A glasshouse herbicide test, pre-emergence, ALOMY. The format is in vivo. The following applies: Alopecurus myosuroides, pre-emergence, 312 h, Rate 250 g/ha, sprayed after cultivation for one day, evaluated after 13 days, read-out: Pre-Emergence Activity ALOMY (100=total damage to plant; 0=no damage to plant). The gist of the method:
as §1

The test system of data set [4] is Echinochloa crus-galli (ECHCG). Kind of data set: Example A glasshouse herbicide test, pre-emergence, ECHCG. The data set is classed as in vivo. The conditions noted are these: Echinochloa crus-galli, pre-emergence, 312 h, Rate 250 g/ha, sprayed after cultivation for one day, evaluated after 13 days, read-out: Pre-Emergence Activity ECHCG (100=total damage to plant; 0=no damage to plant). The gist of the method: as §1

The test system of data set [5] is Winter Wheat variety 'Hereward'. Description: Example B crop damage test, post-emergence, unsafened wheat. The format is in vivo. The following applies: Rate 250 g/ha; post-emergence spray after 8 days cultivation; no safener; evaluated after 13 days. The gist of the method: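 Winter wheat 'Hereward' was sprayed post-emergence 8 days after sowing, using formulated active ingredient in acetone/water (50:50) with 0.5% Tween 20. Plants grew in a glasshouse at 24/16 °C day/night, 14 h light and 65% humidity. Damage was scored 13 days later (0 = none, 100 = total).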

Data set [6] has as its system Alopecurus myosuroides (ALOMY). Kind of data set: Example A glasshouse herbicide test, post-emergence, ALOMY. The data set is classed as in vivo. The conditions noted are these: Alopecurus myosuroides, post-emergence, 312 h, Rate 250 g/ha, sprayed after 8 days cultivation, evaluated after 13 days, read-out: Post-Emergence Activity ALOMY (100=total damage to plant; 0=no damage to plant). The gist of the method: as §1

The test system of data set [7] is Echinochloa crus-galli (ECHCG). Description: Example A glasshouse herbicide test, post-emergence, ECHCG. The data set is classed as in vivo. The conditions noted are these: Echinochloa crus-galli, post-emergence, 312 h, Rate 250 g/ha, sprayed after 8 days cultivation, evaluated after 13 days, read-out: Post-Emergence Activity ECHCG (100=total damage to plant; 0=no damage to plant). The gist of the method: as §1

In data set [8] the test system is Avena fatua (AVEFA). Kind of data set: Example A glasshouse herbicide test, pre-emergence, AVEFA. The following applies: Avena fatua, pre-emergence, 312 h, Rate 250 g/ha, sprayed after cultivation for one day, evaluated after 13 days, read-out: Pre-Emergence Activity AVEFA (100=total damage to plant; 0=no damage to plant). The format is in vivo. The method, boiled down:
as §1

The test system of data set [9] is Winter Wheat variety 'Hereward'. Kind of data set: Example B crop damage test, post-emergence, wheat seed treated with safener cloquintocet mexyl. The format is in vivo. The conditions noted are these: Rate 250 g/ha; post-emergence spray 8 days after sowing; seed treated with cloquintocet mexyl 0.5 g/kg dry seed; evaluated after 13 days. The gist of the method:
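Wheat seed pre-treated with cloquintocet mexyl at 0.5 g/kg seed, sown 8 days before post-emergence spraying of compound in acetone/water (50:50) with 0.5% Tween 20. Glasshouse at 24/16° C, 14 h light, 65% humidity. Damage scored visually after 13 days, 0 (none) to 100 (total).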

The test system of data set [10] is Avena fatua (AVEFA). Kind of data set: Example A glasshouse herbicide test, post-emergence, AVEFA. The format is in vivo. The conditions noted are these: Avena fatua, post-emergence, 312 h, Rate 250 g/ha, sprayed after 8 days cultivation, evaluated after 13 days, read-out: Post-Emergence Activity AVEFA (100=total damage to plant; 0=no damage to plant). The method, boiled down:
as §1

SMILES strings stand for the structures.

`COc1ccc(CC2CC(=O)C(c3c(C)cc(C)cc3C)C2=O)cc1` (centres unmarked) [Compound A24] had a melting point of 197.3 to 197.6 °C. In addition, the pest or weed control at 250 g/ha in the data set on Lolium perenne (LOLPE) [1] is 100%. Moreover, the pest or weed control at 250 g/ha in the data set with Lolium perenne (LOLPE) [2] came to 80%. For the same molecule, in [3], the pest or weed control at 250 g/ha stood at 90%. Also, the pest or weed control at 250 g/ha in [4] worked out at 80%. Also, in data set [5], the “Winter Wheat (Hereward) damage (100=total damage to plant; 0=no damage to plant)” value came to 40. Also, in [6], the pest or weed control at 250 g/ha worked out at 80%. Moreover, the pest or weed control at 250 g/ha in [7] worked out at 30%. In addition, the pest or weed control at 250 g/ha in the data set on Avena fatua (AVEFA) [8] is 80%. In addition, the “Winter Wheat (Hereward) + cloquintocet mexyl damage (100=total damage to plant; 0=no damage to plant)” value in data set [9] was determined as 10. Also, the pest or weed control at 250 g/ha in the data set on Avena fatua (AVEFA) [10] worked out at 90%.
